Bridge positions count the residues as written; N and C are the ends. Peptide text beside a SMILES is read from it.

The assay concerns Escherichia coli W3110. The format is cell-based. Conditions: for Ec W3110 MIC MH: E. coli W3110, MH medium; for Ec W3110 MIC RPMI: E. coli W3110, RPMI medium.

As for `CC[C@H](C)[C@@H]1NC(=O)[C@H](CCCCN)NC(=O)[C@H](CC(C)C)NC(=O)[C@H](CCCNC(=N)N)NC(=O)CNC(=O)CNC(=O)[C@H](CCCNC(=N)N)NC(=O)[C@H](CC(N)=O)NC(=O)[C@H](CC(N)=O)NC(=O)[C@H](C(C)C)NC(=O)[C@H](CCCNC(=N)N)NC(=O)[C@H](C(C)C)NC(=O)[C@H]([C@@H](C)O)NC(=O)[C@H](C(C)C)NC(=O)[C@@H](N)CSSC[C@@H](C(=O)O)NC(=O)[C@H](C(C)C)NC(=O)[C@H](CCC(N)=O)NC(=O)[C@H](CC(C)C)NC(=O)[C@H]([C@@H](C)O)NC1=O` [SyRA-14] (H-CVTVRVNNRGGRLKITLQVC-OH; disulfide 1-20), the “W3110 MIC” value is greater than 256 µg/mL.
With `CC[C@H](C)[C@@H]1NC(=O)[C@H]([C@@H](C)O)NC(=O)[C@H](CC(C)C)NC(=O)[C@@H](N)CSSC[C@@H](C(=O)O)NC(=O)[C@H](C(C)C)NC(=O)[C@H](CCC(=O)O)NC(=O)[C@H](C(C)C)NC(=O)[C@H](CO)NC(=O)[C@H](C(C)C)NC(=O)[C@H](CCCCN)NC(=O)[C@H](C(C)C)NC(=O)[C@H](CCCNC(=N)N)NC(=O)[C@H](CO)NC(=O)[C@H](CCCNC(=N)N)NC(=O)[C@H](CCCNC(=N)N)NC(=O)[C@H](CC(=O)O)NC(=O)[C@H](CC(=O)O)NC(=O)[C@H](CC(C)C)NC(=O)[C@H](CCCNC(=N)N)NC1=O` [SyRA-1] (H-CLTIRLDDRRSRVKVSVEVC-OH; disulfide 1-20), the “W3110 MIC” value was greater than 256 µg/mL.
As for `CC[C@H](C)[C@@H]1NC(=O)[C@H]([C@@H](C)O)NC(=O)[C@H](C(C)C)NC(=O)[C@@H](N)CSSC[C@@H](C(=O)O)NC(=O)[C@H](C(C)C)NC(=O)[C@H](CCC(=O)O)NC(=O)[C@H](C(C)C)NC(=O)[C@H]([C@@H](C)O)NC(=O)[C@H](C(C)C)NC(=O)[C@H](CCCCN)NC(=O)[C@H](C(C)C)NC(=O)CNC(=O)CNC(=O)[C@H](CCCNC(=N)N)NC(=O)CNC(=O)[C@H](CC(N)=O)NC(=O)[C@H](CC(=O)O)NC(=O)[C@H](C(C)C)NC(=O)[C@H](CCCNC(=N)N)NC1=O` [SyRA-8] (H-CVTIRVDNGRGGVKVTVEVC-OH; disulfide 1-20), the “W3110 MIC” value is greater than 256 µg/mL.
In the case of `CC[C@H](C)[C@@H]1NC(=O)[C@H](CCCNC(=N)N)NC(=O)[C@H](C(C)C)NC(=O)[C@@H](N)CSSC[C@@H](C(=O)O)NC(=O)[C@H](C(C)C)NC(=O)[C@H](CCC(N)=O)NC(=O)[C@H](C(C)C)NC(=O)[C@H](CO)NC(=O)[C@H](C(C)C)NC(=O)[C@H](CCCCN)NC(=O)[C@H](C(C)C)NC(=O)CNC(=O)[C@H](CCCNC(=N)N)NC(=O)[C@H](CCCNC(=N)N)NC(=O)[C@H](CCCNC(=N)N)NC(=O)[C@H](CC(N)=O)NC(=O)[C@H](CC(N)=O)NC(=O)[C@H](CC(C)C)NC(=O)[C@H](CCCNC(=N)N)NC1=O` [SySA-66] (H-CVRIRLNNRRRGVKVSVQVC-OH; disulfide 1-20), the “W3110 MIC MH” value was determined as 128 µg/mL and the “W3110 MIC RPMI” value was found to be 32 µg/mL.
Turning to `CC[C@H](C)[C@@H]1NC(=O)[C@H](CCCCN)NC(=O)[C@H](C(C)C)NC(=O)[C@H](CCCNC(=N)N)NC(=O)[C@H](CCCNC(=N)N)NC(=O)[C@H](CCCNC(=N)N)NC(=O)[C@H](CCCNC(=N)N)NC(=O)[C@H](CC(N)=O)NC(=O)[C@H](CC(N)=O)NC(=O)[C@H](CC(C)C)NC(=O)[C@H](CCCNC(=N)N)NC(=O)[C@H](C(C)C)NC(=O)[C@H](CCCNC(=N)N)NC(=O)[C@H](C(C)C)NC(=O)[C@@H](N)CSSC[C@@H](C(=O)O)NC(=O)[C@H](C(C)C)NC(=O)[C@H](CCC(=O)O)NC(=O)[C@H](C(C)C)NC(=O)[C@H](CO)NC1=O` [SySA-65] (H-CVRVRLNNRRRRVKISVEVC-OH; disulfide 1-20; N-terminus and C-terminus assumed), the Ec W3110 MIC MH was 64 µg/mL, the Ec W3110 MIC RPMI worked out at 16 µg/mL, the “W3110 MIC MH” value amounted to 64 µg/mL and the “W3110 MIC RPMI” value was found to be 16 µg/mL.
Regarding `CC[C@H](C)[C@@H]1NC(=O)[C@H](CCCNC(=N)N)NC(=O)[C@H]([C@@H](C)CC)NC(=O)[C@H](CCCNC(=N)N)NC(=O)[C@@H](N)CSSC[C@@H](C(=O)O)NC(=O)[C@H](CCC(=O)O)NC(=O)[C@H](C(C)C)NC(=O)[C@H](CCC(=O)O)NC(=O)[C@H](CC(C)C)NC(=O)[C@H](CCCNC(=N)N)NC(=O)[C@H](C(C)C)NC(=O)[C@H]([C@@H](C)O)NC(=O)CNC(=O)CNC(=O)[C@H](CCCNC(=N)N)NC(=O)[C@H](CC(=O)O)NC(=O)[C@H](CC(N)=O)NC(=O)[C@H](C(C)C)NC(=O)[C@H](CC(N)=O)NC1=O` [SyRC-4] (H-CRIRINVNDRGGTVRLEVEC-OH; disulfide 1-20), the “W3110 MIC” value is greater than 256 µg/mL.
As to `CC[C@H](C)[C@@H]1NC(=O)[C@H](CCCNC(=N)N)NC(=O)[C@H](CC(C)C)NC(=O)CNC(=O)[C@H](CCCNC(=N)N)NC(=O)[C@H](CCCNC(=N)N)NC(=O)[C@H](CCCNC(=N)N)NC(=O)[C@H](CC(N)=O)NC(=O)[C@H](CC(N)=O)NC(=O)[C@H](CC(C)C)NC(=O)[C@H](CCCNC(=N)N)NC(=O)[C@H](C(C)C)NC(=O)[C@H](CCCNC(=N)N)NC(=O)[C@H](CC(C)C)NC(=O)[C@@H](N)CSSC[C@@H](C(=O)O)NC(=O)[C@H](C(C)C)NC(=O)[C@H](CCC(N)=O)NC(=O)[C@H](CC(C)C)NC(=O)[C@H](CO)NC1=O` [SySA-73] (H-CLRVRLNNRRRGLRISLQVC-OH; disulfide 1-20; N-terminus and C-terminus assumed), the Ec W3110 MIC MH is 32 µg/mL, the Ec W3110 MIC RPMI was determined as 8 µg/mL, the “W3110 MIC MH” value is 32 µg/mL and the “W3110 MIC RPMI” value came out at 8 µg/mL.
Consider `CC[C@H](C)[C@@H]1NC(=O)[C@H](CC(N)=O)NC(=O)[C@H](C(C)C)NC(=O)[C@H](CCCCN)NC(=O)[C@H]([C@@H](C)CC)NC(=O)[C@H](CCCNC(=N)N)NC(=O)[C@@H](N)CSSC[C@@H](C(=O)O)NC(=O)[C@H](CCC(=O)O)NC(=O)[C@H](CC(C)C)NC(=O)[C@H](CCC(=O)O)NC(=O)[C@H](CC(C)C)NC(=O)[C@H](CCCCN)NC(=O)[C@H](C(C)C)NC(=O)[C@H]([C@@H](C)O)NC(=O)[C@H](CCCNC(=N)N)NC(=O)[C@H](CCCNC(=N)N)NC(=O)[C@H](CCCNC(=N)N)NC(=O)[C@H](CC(N)=O)NC(=O)[C@H](CC(N)=O)NC1=O` [SyRC-6] (H-CRIKVNINNRRRTVKLELEC-OH; disulfide 1-20), for which the “W3110 MIC” value is greater than 256 µg/mL.
For `CC[C@H](C)[C@@H]1NC(=O)[C@H](CCCNC(=N)N)NC(=O)[C@H]([C@@H](C)CC)NC(=O)[C@H](CCCNC(=N)N)NC(=O)[C@@H](N)CSSC[C@@H](C(=O)O)NC(=O)[C@H](CCC(=O)O)NC(=O)[C@H](C(C)C)NC(=O)[C@H](CCC(N)=O)NC(=O)[C@H](CC(C)C)NC(=O)[C@H](CCCNC(=N)N)NC(=O)[C@H](C(C)C)NC(=O)[C@H]([C@@H](C)O)NC(=O)CNC(=O)CNC(=O)CNC(=O)[C@H](CC(N)=O)NC(=O)[C@H](CC(=O)O)NC(=O)[C@H](C(C)C)NC(=O)[C@H](CC(N)=O)NC1=O` [SyRC-12] (H-CRIRINVDNGGGTVRLQVEC-OH; disulfide 1-20), the “W3110 MIC” value was greater than 256 µg/mL.
Regarding `CC(C)C[C@@H]1NC(=O)[C@H](CCCNC(=N)N)NC(=O)[C@H](CCCNC(=N)N)NC(=O)[C@H](CCCNC(=N)N)NC(=O)[C@H](CCCNC(=N)N)NC(=O)[C@H](CC(N)=O)NC(=O)[C@H](CC(N)=O)NC(=O)[C@H](CC(C)C)NC(=O)[C@H](CCCNC(=N)N)NC(=O)[C@H](C(C)C)NC(=O)[C@H](CCCNC(=N)N)NC(=O)[C@H](C(C)C)NC(=O)[C@@H](N)CSSC[C@@H](C(=O)O)NC(=O)[C@H](C(C)C)NC(=O)[C@H](CCC(=O)O)NC(=O)[C@H](CC(C)C)NC(=O)[C@H](CO)NC(=O)[C@H](C(C)C)NC(=O)[C@H](CCCCN)NC1=O` [SySA-16] (H-CVRVRLNNRRRRLKVSLEVC-OH; disulfide 1-20; N-terminus and C-terminus assumed), the Ec W3110 MIC MH is 32 µg/mL, the Ec W3110 MIC RPMI came to 32 µg/mL, the “W3110 MIC MH” value was found to be 32 µg/mL and the “W3110 MIC RPMI” value was determined as 32 µg/mL.
`CC(C)C[C@@H]1NC(=O)CNC(=O)[C@H](CCCNC(=N)N)NC(=O)[C@H](CCCNC(=N)N)NC(=O)[C@H](CCCNC(=N)N)NC(=O)[C@H](CC(N)=O)NC(=O)[C@H](CC(N)=O)NC(=O)[C@H](CC(C)C)NC(=O)[C@H](CCCNC(=N)N)NC(=O)[C@H](C(C)C)NC(=O)[C@H](CCCNC(=N)N)NC(=O)[C@H](CC(C)C)NC(=O)[C@@H](N)CSSC[C@@H](C(=O)O)NC(=O)[C@H](C(C)C)NC(=O)[C@H](CCC(N)=O)NC(=O)[C@H](C(C)C)NC(=O)[C@H](CO)NC(=O)[C@H](C(C)C)NC(=O)[C@H](CCCCN)NC1=O` [SySA-17] (H-CLRVRLNNRRRGLKVSVQVC-OH; disulfide 1-20; N-terminus and C-terminus assumed): the Ec W3110 MIC MH was found to be 64 µg/mL, the Ec W3110 MIC RPMI is 32 µg/mL, the “W3110 MIC MH” value stood at 64 µg/mL and the “W3110 MIC RPMI” value was 32 µg/mL.
Regarding `CC(C)C[C@@H]1NC(=O)[C@H](CCCNC(=N)N)NC(=O)[C@H](C(C)C)NC(=O)[C@H](CCCNC(=N)N)NC(=O)[C@H](CC(C)C)NC(=O)[C@@H](N)CSSC[C@@H](C(=O)O)NC(=O)[C@H](C(C)C)NC(=O)[C@H](CCC(N)=O)NC(=O)[C@H](C(C)C)NC(=O)[C@H](CO)NC(=O)[C@H](C(C)C)NC(=O)[C@H](CCCCN)NC(=O)[C@H](C(C)C)NC(=O)[C@H](CCCNC(=N)N)NC(=O)[C@H](CCCNC(=N)N)NC(=O)CNC(=O)CNC(=O)[C@H](CC(N)=O)NC(=O)[C@H](CC(N)=O)NC1=O` [SyRA-3] (H-CLRVRLNNGGRRVKVSVQVC-OH; disulfide 1-20), the “W3110 MIC” value was greater than 256 µg/mL.
On the same count and under the same terms, to `CC[C@H](C)[C@@H]1NC(=O)[C@H]([C@@H](C)O)NC(=O)[C@H](C(C)C)NC(=O)[C@@H](N)CSSC[C@@H](C(=O)O)NC(=O)[C@H](C(C)C)NC(=O)[C@H](CCC(N)=O)NC(=O)[C@H](C(C)C)NC(=O)[C@H]([C@@H](C)O)NC(=O)[C@H](C(C)C)NC(=O)[C@H](CCCNC(=N)N)NC(=O)[C@H](CC(C)C)NC(=O)CNC(=O)[C@H](CCCNC(=N)N)NC(=O)[C@H](CCCNC(=N)N)NC(=O)[C@H](CCCNC(=N)N)NC(=O)[C@H](CC(=O)O)NC(=O)[C@H](CC(=O)O)NC(=O)[C@H](CC(C)C)NC(=O)[C@H](CCCNC(=N)N)NC1=O` [SyRA-9] (H-CVTIRLDDRRRGLRVTVQVC-OH; disulfide 1-20) belongs greater than 256 µg/mL.

The record behind these values is publication PMC9833666, “Designing and identifying β-hairpin peptide macrocycles with antibiotic potential” (Science Advances, 2023).
